Assay results: US5627194A, “Anti-viral guanidino-substituted compounds” (Allelix Biopharmaceuticals Inc., priority 1994, dated 1997)

Experiments:
herpesvirus [1] = experiment: Inhibition studies of herpesvirus replication by the compounds exemplified; type: cell-based; conditions: summary table, read-out: ED50 (the source's name)
Procedure: (§1) The following procedures were then used to determine inhibitory effects of the compound of example 1 on the replication of HSV-1, strain F. First, confluent monolayers of the African green monkey kidney cell line, Vero (ATCC 733-VR CCL 81) in 24 well cell culture plates were pretreated with specified concentrations (0 μM, 0.5 μM, 1 μM, 5 μM, 10 μM, 20 μM and 50 μM) of ALX-19 at 37° C., 5% CO2 for 24 hours. This was accomplished by diluting the stock solution of the test compound in growth medium (10% fetal bovine serum, 100 IU/ml penicillin, 100 μg/ml streptomycin and 0.02 mg/ml gentamicin in Dulbecco's MEM (DMEM)) used to overlay the monolayers.
(§2) After pretreatment with the test compound, the monolayers were overlaid with 0.1 ml of diluted virus stock at about 20 pfu/well. Virus was then allowed to absorb for 1 hours at 37° C. The virus inoculum was removed and the monolayers were overlaid with DMEM containing 2% FBS and the specified concentrations of the test compound. Virus was next allowed to replicate for 48 hours and then the monolayers were fixed and stained with a solution of 1% crystal violet in 70% ethanol:formalin:acetic acid (20:2:1). Finally, plaques (each representing a single infectious virus particule or plaque forming unit (PFU) were counted and checked microscopically. The results were as follows:
(§3) A procedure similar to that described in Example 3 was conducted to determine the anti-viral activity of the compound of example 2. In the case, however, the concentrations of the test compound used to pretreat the MRC-5 cells were 0 μM, 1 μM, 10 μM, 100 μM and 500 μM, respectively. The following results were obtain on infection and incubation of the treated cells:
The following table illustrates results obtained in inhibition and cytotoxicity studies of herpesvirus replication by the compounds exemplified.

herpesvirus [2] = type: cell-based
Procedure: The therapeutic index of this compound, i.e. the ratio of its cytotoxicity to its viral toxicity, was determined to be 12.29. The following table illustrates results obtained in inhibition and cytotoxicity studies of herpesvirus replication by the compounds exemplified.

HSV-1, strain F = experiment: Plaque reduction assay, inhibition of HSV-1 strain F replication by the compound of example 1 (Vero cells); type: cell-based, herpes simplex virus type 1; conditions: for Plaque number: Vero, 24 h pretreatment, 48 h, untreated 19
Excerpt: (§4) The present invention provides novel di-guanidino-substituted compounds having anti-herpesvirus activity. The term "anti-herpesvirus" as used herein refers to those compounds which inhibit replication of a member of the herpesvirus family as determined by conventional cell culture assay, such as the well established plaque reduction assay. In the context of the plaque reduction assay, for example, the anti-herpesvirus nature of a compound in accordance with the present invention is indicated by a reduction in plaque count, or a reduction in plaque size, following treatment of virally infected cells with the given compound, relative to a virally infected, untreated control.
The compound of example 1 was formulated as a 10 mM stock in water for in vitro and cell culture procedures. The stock was then diluted into buffers used for specific assays, or into cell culture media.
as §1
as §2, with “follows: […]” for “follows:”

herpes simplex virus = experiment: Plaque reduction assay, inhibition of herpesvirus replication by the compound of example 2 (MRC-5 cells); type: cell-based; conditions: for Plaque number: untreated 19
Excerpt: as §4, §1, §2
as §3, with “cells: […]” for “cells:”

With `COC1CC[C@H](OCCCNC(=N)N)[C@@H](COCCCNC(=N)N)O1` (stereo partly drawn) [Example 1, Methyl-4,6-di-O-propylguanidine-2,3-dideoxy-α,β-D-erythro-hexoside] the EC50 (herpesvirus [1]) was 2.6 µM, the TI (herpesvirus [2]) was 12.29 and the “therapeutic index, ratio of cytotoxicity to viral toxicity” value (herpesvirus [2]) was 12.29. The Plaque number (HSV-1, strain F; 0.5 μM, HSV-1 strain F) was 18, the Plaque number (HSV-1, strain F; 1 μM, HSV-1 strain F) was 16 and the Plaque number (HSV-1, strain F; 5 μM, HSV-1 strain F) was 6. It also gave a Plaque number (HSV-1, strain F; 10 μM, HSV-1 strain F) of 4, a Plaque number (HSV-1, strain F; 20 μM, HSV-1 strain F) of 1 and an IC50 (HSV-1, strain F; Human alphaherpesvirus 1, HSV-1 strain F, Vero cells, plaque reduction) of 2600 nM. For the same compound, the “reduction in the replication of herpes simplex virus” value (HSV-1, strain F; concentration of more than 1 μM) was “significant reduction”.

For `N=C(N)NCCCOC[C@H]1OC(OCCCNC(=N)N)CC[C@@H]1OCCCNC(=N)N` (stereo partly drawn) [Example 2, 1,4,6-tri-O-propylguanidine-2,3-dideoxy-hexoside], the EC50 (herpesvirus [1]) was 10.5 µM, the TI (herpesvirus [2]) was over 50 and the “therapeutic index, ratio of cytotoxicity to viral toxicity” value (herpesvirus [2]) was over 50. It also gave a Plaque number (herpes simplex virus; 0.5 μM, MRC-5 cells) of 18, a Plaque number (herpes simplex virus; 1 μM, MRC-5 cells) of 16 and a Plaque number (herpes simplex virus; 5 μM, MRC-5 cells) of 11. It also gave a Plaque number (herpes simplex virus; 10 μM, MRC-5 cells) of 9, a Plaque number (herpes simplex virus; 20 μM, MRC-5 cells) of 6 and a Plaque number (herpes simplex virus; 50 μM, MRC-5 cells) of 5. The EC50 (herpes simplex virus; MRC5, MRC-5 cells, plaque reduction, read-out: ED50 (the source's name)) was 10.5 µM and the “reduction in the replication of herpes simplex virus” value (herpes simplex virus; concentration of 1 μM or more) was “significant reduction”.

With `CCOC1CC[C@H](OCCCNC(=N)N)[C@@H](COCCCNC(=N)N)O1` (stereo partly drawn) [Example 5, ethyl-4,6-di-O-propylguanidine-2,3-dideoxy-hexoside] the EC50 (herpesvirus [1]) was 2.5 µM and the TI (herpesvirus [2]) was 9.96.

For `CCOC1CC[C@H](OCCCCCNC(=N)N)[C@@H](COCCCCCNC(=N)N)O1` (stereo partly drawn) [Example 6, ethyl-4,6-di-O-pentylguanidine-2,3-dideoxy-hexoside], the EC50 (herpesvirus [1]) was 9.3 µM and the TI (herpesvirus [2]) was 17.28.

In the case of `CC(C)OC1CC[C@H](OCCCCCNC(=N)N)[C@@H](COCCCCCNC(=N)N)O1` (stereo partly drawn) [Example 7, isopropyl-4,6-di-O-pentylguanidine-2,3-dideoxy-D-erythro-hexoside], the EC50 (herpesvirus [1]) is reported as 6.45 µM and the TI (herpesvirus [2]) is reported as 5.17.

For `CCOCCOCCOC1CC[C@H](OCCCNC(=N)N)[C@@H](COCCCNC(=N)N)O1` (stereo partly drawn) [Example 8, (ethoxy-ethoxy-ethyl)-4,6-di-O-propylguanidine-2,3-dideoxy-d-erythrohexoside], the EC50 (herpesvirus [1]) was 10 µM and the TI (herpesvirus [2]) was over 20.

In the case of `N=C(N)NCCCOC[C@H]1OCCC[C@@H]1OCCCNC(=N)N` [Example 9, 4,6-di-O-propylguanidine-3-deoxy dihydro-D-glucal], the EC50 (herpesvirus [1]) is reported as about 50 µM and the TI (herpesvirus [2]) is reported as ~ 350.

For `N=C(N)NCCCOC[C@H]1OC(OCCO)CC[C@@H]1OCCCNC(=N)N` (stereo partly drawn) [Example 10, hydroxyethyl-4,6-di-O-propylguanidine-2,3-dideoxy-hexoside], the EC50 (herpesvirus [1]) was 10.8 µM and the TI (herpesvirus [2]) was 31.22.
